Results taken from patent US20250034139A1, “AMINE COMPOUNDS HAVING ANTI-INFLAMMATORY, ANTIFUNGAL, ANTIPARASITIC, AND ANTICANCER ACTIVITY” (PHARMA CINQ, LLC, priority 2013, published 2025).
In brackets after ≈: the same amount, converted by molar mass. Where two headings read alike, the source gives them in different places. Values belong to the compound of their own block, whether it stands above or below them.

Columns and labels:
THP-1 cells = assay: Example D: LPS-triggered THP-1 cell death assay, acute/5-hour and chronic/48-hour; format: cell-based, Human; conditions: for Viable cell percent change, Chronic/48-hour, Mean: 10 ng/ml LPS, 0.1 μM test compound
Procedure: Compounds of the invention were tested at 0.1 μM versus AC in the LPS-triggered THP-1 cell death assay. Both acute/5-hour and chronic/48-hour phases of cell death were assessed. Compounds were screened in batches with DMSO as the negative control and AC as the high activity control.

[1] = system: Cryptococcus neoformans (serotype D); assay: Example K: Cryptococcus neoformans (serotype D) growth inhibition; format: cell-based; conditions: OD of 48 hour reading, 37° C., tested 4 to 60 μM, XLfit; for IC50: read-out: IC50 (concentration for 50% of inhibition)
Procedure: Cryptococcus neoformans (serotype D) were plated in 96 well plates with 144 μl/well of 8×10e5 CFU/ml in YM growth medium. Diluted compounds were then added to each well with concentration ranged from 4 to 60 μM as final concentration in duplicates. The plates were inoculated at 37° C. for total of 48 hours. Two readings of OD at 600 nm were measured after 30 and 48 hour treatments.
• 1. Pick a single colony of Cryptococcus from the YM agar plate using the inoculum loop and inoculate into a 125 ml flask containing 25 ml of YM growth medium. • 2. Incubate at 37° C. with shaking at 220 rpm for 24 hours with loosen lid to allow air in and facilitates growth. • 3. Examine an aliquot of the culture under a microscope for yeast cell morphology and lack of bacterial contamination. • 4. Dilute the overnight culture with YM medium at 1:100 dilution and count the number of cells as 1×10^6 cfu/ml. • 5. Make a final concentration of cells suspension at 8×10^5 cfu/ml in YM medium. • 6. Plate 144 μl/well of 8×10^5 cfu/ml cell suspension on 96-well plates. Part-II: Cryptococcus Growth Inhibition Testing with Compounds • 1. From 10 mM DMSO stock solutions, make serial dilutions of compounds to 0.1, 0.2, 0.3, 0.5, 1.0 and 1.5 mM solution. • 2. Add 6 ul each of diluted compound solutions per well in duplicates. The final concentrations were 0, 4, 8, 12, 20, 40 and 60 micromolar. • 3. Incubated all plates at 37° C. overnight (30 hours) with 150 rpm shaking. • 4. Read absorbance at OD600 for each plate. • 5. Leave plates in 37° C. incubator for another day and read absorbance at OD600 again at 48 hours to ensure the inhibitory effect of the compounds. • 6. Calculated the % inhibition and IC50 of each compound against untreated cells.

[2] = system: Cryptococcus neoformans (serotype A); assay: Example L: Cryptococcus neoformans (serotype A) growth inhibition; format: cell-based; conditions: OD of 26 hour reading, 30° C., XLfit; for IC50: read-out: IC50, uM (concentration for 50% of inhibition)
Procedure: Cryptococcus neoformans (serotype A) were plated in 96 well plates with 144 μl/well of 5×10e5 CFU/ml in YPD growth medium. Diluted compounds were then added to each well with concentration ranged from 0.05 to 10 μM as final concentration in duplicates. The plates were inoculated at 30° C. Two readings of OD at 600 nm were measured after 18 hr and […] treatments.
C12-imidazol had relative weak activity against Cryptococcus serotype A at low concentration. Data plotted was based on 26 hour reading because 18 hour reading was too low.
• 1. Pick a single colony of Cryptococcus from the Sabouraud Dextrose agar plate using the inoculum loop and inoculate into a 125 ml flask containing 25 ml of YPD growth medium • 2. Incubate at 30° C. with shaking at 220 rpm for 24 hours with loosen lid to allow air in and facilitates growth. • 3. Examine an aliquot of the culture under a microscope for yeast cell morphology and lack of bacterial contamination. • 4. Dilute the overnight culture with YPD medium at 1:100 dilution and count the number of cells as 8×10^6 cfu/ml. • 5. Make a final concentration of cells suspension at 5×10^5 cfu/ml in YPD medium after the stock culture had been stored at 4° C. for 3 days. • 6. Plate 144 μl/well of 5×10^5 cfu/ml cell suspension on 96-well plates. Part-II: Cryptococcus Growth Inhibition Testing with Compounds • 1. From 10 mM DMSO stock solutions, make serial dilutions of compounds to 0.0013, 0.0025, 0.0125, 0.025, 0.05, 0.125 and 0.25 mM solution • 2. Add 6 ul each of diluted compound solutions per well in duplicates. The final concentrations were 0, 0.05, 0.1, 0.5, 1.0, 2.0, 5.0 and 10 micromolar. • 3. Incubated all plates at 30° C. overnight with 175 rpm shaking. • 4. Read absorbance at OD600 after 18 and 26 hours for each plate. • 5. Calculated the % inhibition and IC50 of each compound against the untreated cell.

[3] = system: PC-3 prostate cancer cells; assay: Example T: sensitisation of PC-3 cells to doxorubicin, oxaliplatin, paclitaxel or vincristine, Wst1; format: cell-based, human
[4] = system: PC3 human prostate cancer cells; assay: Example S: in vitro anticancer screen, PC-3 cells, Wst1; format: cell-based; conditions: Homo sapiens, PC-3, 20 h, read-out: PC-3, percent of cancer cell survival relative to vehicle treated cells
In short: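 Values give percent survival relative to vehicle, read by Wst1 absorbance (450/630 nm) after 2 h dye incubation, in triplicate. Cells were seeded at 2×10^4/well and treated about 20 h with compound at 0.4, 0.5 or 2.5 μM, depending on compound.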

[5] = system: 4T1 murine breast cancer cells; assay: Example S: in vitro anticancer screen, 4T1 cells, Wst1; format: cell-based, mouse; conditions: Mus musculus, 4T1, 18 h
In short: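 Read-out is Wst1 absorbance (450 nm, reference 630 nm) after roughly 2 hr dye incubation, giving percent cell survival versus vehicle. Before that, compounds at 1 μM or 5 μM were applied for 18 hr to 4T1 cells plated at 1×10^4 per well.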

[6] = system: 4T1 mouse mammary breast cancer cells; assay: Example O: syngeneic 4T1 breast cancer growth in Balb/C mice; format: in vivo; conditions: 4T1 in female Balb/C mice
Procedure: Cancer models in mice generally either involve syngeneic murine tumors in immunocompetent mice or xenografts of human tumors in immunocompromised mice. […] Mice received test compounds by oral gavage in 1% hydroxypropylmethylcellulose from day 2 until day 30. Tumor growth was assessed by caliper measurements twice per week and tumor weight after necropsy, and body weight was also monitored. Treatment groups were: • 1. […] HPMC) • 2. CI (120 μmol/kg/day) • 3. BA (120 μmol/kg/day) • 4. CP (120 μmol/kg/day) • 5. CQ (120 μmol/kg/day) • 6. AA (120 μmol/kg/day) • 7. AC (120 μmol/kg/day)

Trichophyton rubrum = assay: Example J: Trichophyton rubrum growth inhibition, scoring by eye; format: cell-based; conditions: 6 days at 30° C., tested 6 to 40 μM; read-out: MIC, μM (maximum inhibition concentration, scoring by eye)
Procedure: Trichophyton grown on two agar plates were collected by scraping into 10 ml saline and filtered through 8 μm filters. […] This experiment included some active compounds from previous experiment and added several untested compounds. […] Following table listed the maximum inhibition concentration (MIC) based on scoring by eye. Scrape frozen Trichophyton culture from ATCC vial and suspended in 100 μl PDB, and then plate on a PDA plate. Incubate plate at 30 C for 4 days. The plate was covered almost full. […] Take OD of collected solution at 520 nm and 600 nm: […] Part-II: […] Add 6 μl each of diluted compound solutions per well in triplicates. […] Wrap the plates with […] incubate all plates at 30° C. for 6 days. • Take picture of the plates on KODAK imager with 17 captures of 1.5 sec/capture for total of 25.5 second exposure.

S. cerevisiae = assay: Example I: Saccharomyces cerevisiae growth inhibition (OD 600 nm); format: cell-based; conditions: 18 hour incubation at 30° C., OD 600 nm, XLfit
Procedure: An overnight culture of S. cerevisiae was dilution in YPD broth to concentration of 40,000/ml and 150 μl/well was plated in 96 well plates. Compounds were then added to each well with concentration ranged from 4 to 50 μM as final concentration. The plates were inoculated at 30° C. overnight with shaking at 220 rpm and absorbance at 600 nm was read after 18 hour incubation.
• 1. One days prior to the inoculum preparation, pick a single colony of S. cerevisiae from the Sabouraud Dextrose Agar plate using the inoculum loop and inoculate into a 50 mL tube containing 10 ml of YPD growth medium • 2. Incubate at 30° C. with shaking at 220 rpm for 24 hours with loosen lid to allow air in and facilitates growth. • 3. Examine an aliquot of the culture under a microscope for yeast cell morphology and lack of bacterial contamination. • 4. Dilute the overnight culture with YPD medium at 1:30 dilution (70 ul to 2.1 ml) and count the number of cells as 4,230,000/ml. • 5. Mix 620 μl of 1:30 dilution and 64.4 ml YPD to make final concentration of 40,000/ml cells • 6. Plated 144 μl/well in four 96-well plates.
• 1. From 10 mM DMSO stock solutions, make serial dilutions of compounds to 0.1, 0.2, 0.3, 0.63 and 1.25 mM solutions • 2. Add 6 μl each of diluted compound solutions per well in duplicates. The final concentrations were 0, 4, 8, 12, 25 and 50 micromolar. • 3. Incubated all plates at 30 C for overnight (˜18 hours) with 220 rpm shaking. • 4. Read absorbance at OD600 for each plate on Spectra Max Plus plate reader. • 5. Calculate the % inhibition of each compound against the DMSO treated cell and plotted.

IC50 ([1]; Cryptococcus deneoformans): 1.03 µM
IC50 ([2]; Cryptococcus neoformans): 3.73 µM
MIC ([2]; Cryptococcus neoformans, read-out: MIC, uM (concentration for maximum - 99% of inhibition)): 56.1 µM (≈ 22 µg/mL)
SMILES: CCCCCCCCCCOc1ccc(CNc2ncnc3ccccc23)cc1 [BN, N-[4-(Decyloxy)benzyl]quinazolin-4-amine]
Viable cell percent change, Chronic/48-hour, Mean (THP-1 cells): 60.91%

SMILES: CCCCOCCCCCCCCNc1ccnc2ccccc12 [CI, N-(8-Butoxyoctyl)quinolin-4-amine]
viability at 0.4 µM ([3]; Homo sapiens, PC-3, 72 h, read-out: No Chemo: percent cell survival): 77.9%
Doxorubicin 3.5 μM: percent cell survival ([3]; PC-3 cells, compound 0.4 μM + doxorubicin 3.5 μM, 72 hours, chemotherapy agent alone normalized to 100%): 67.6%
Oxaliplatin 100 μM: percent cell survival ([3]; PC-3 cells, compound 0.4 μM + oxaliplatin 100 μM, 72 hours, chemotherapy agent alone normalized to 100%): 21.8%
Paclitaxel 50 μM: percent cell survival ([3]; PC-3 cells, compound 0.4 μM + paclitaxel 50 μM, 72 hours, chemotherapy agent alone normalized to 100%): 48.7%
Vincristine 100 nM: percent cell survival ([3]; PC-3 cells, compound 0.4 μM + vincristine 100 nM, 72 hours, chemotherapy agent alone normalized to 100%): 33.8%
Viable cell percent change, Chronic/48-hour, Mean (THP-1 cells): 28.46%
activity relative to AC in the LPS-triggered THP-1 cell death assay, in words (THP-1 cells; 0.1 μM, 5-hour and 48-hour time points): equivalent activity to AC at both the 5-hour and 48-hour time points
viability at 0.4 µM [4]: 77.9%
viability at 1 µM ([5]; read-out: 4T1 1 μM, percent of cancer cell survival relative to vehicle treated cells): 28.3%
viability at 5 µM ([5]; read-out: 4T1 5 μM, percent of cancer cell survival relative to vehicle treated cells): 19.1%
Final Tumor Volume ([6]; 120 μmol/kg/day oral gavage, day 2 to day 30): 702 ± 244 mm^3
Δ BW % ([6]; 120 μmol/kg/day oral, final vs initial body weight): −5.5%
Final Body Weight ([6]; 120 μmol/kg/day oral, final, in g (unit assumed)): 20.6 ± 0.6
Initial Body Weight ([6]; 120 μmol/kg/day oral, initial (baseline)): 21.8 ± 0.8 g

MIC (Trichophyton rubrum): 18 µM (≈ 4.26 µg/mL)
MIC, uM (99% of inhibition of fungal growth) (S. cerevisiae): 29.04 µM
IC50 (S. cerevisiae; read-out: IC50, uM (50% inhibition of fungal growth)): 15.2 µM
MIC (concentration for maximum-99% of inhibition) [1]: 20.54
IC50 [1]: 1.81 µM
MIC, uM (concentration for maximum - 99% of inhibition) [2]: 10.83 µM
IC50 [2]: 3.67 µM
SMILES: CCCCCCCCCCCCn1ccnc1 [Compound C12-Im, reference compound]
